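In this assay, cells in 96-well plates receive the compound at five concentrations for 48 hours. Endpoints are linearly interpolated between the surrounding concentrations. GI50 is the concentration that inhibits growth by half. TGI is the concentration that stops growth completely.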
What was measured:
Test in all cases: DTP human tumour cell line panel, 48 h
[1] = test system: 786-0 renal
[2] = test system: A498 renal
[3] = test system: A549 NSCLC
[4] = test system: ACHN renal
[5] = test system: BT-549 breast
[6] = test system: CAKI-1 renal
[7] = test system: CCRF-CEM leukemia
[8] = test system: COLO 205 colon
[9] = test system: DU-145 prostate
[10] = test system: EKVX NSCLC
[11] = test system: HCC-2998 colon
[12] = test system: HCT-116 colon
[13] = test system: HCT-15 colon
[14] = test system: HL-60(TB) leukemia
[15] = test system: HOP-62 NSCLC
[16] = test system: HOP-92 NSCLC
[17] = test system: HS 578T breast
[18] = test system: HT29 colon
[19] = test system: IGROV1 ovarian
[20] = test system: K-562 leukemia
[21] = test system: KM12 colon
[22] = test system: LOX IMVI melanoma
[23] = test system: M14 melanoma
[24] = test system: MALME-3M melanoma
[25] = test system: MCF7 breast
[26] = test system: MDA-MB-231 breast
[27] = test system: MDA-MB-435
[28] = test system: MOLT-4 leukemia
[29] = test system: NCI-H226 lung
[30] = test system: NCI-H23 lung
[31] = test system: NCI-H460 lung
[32] = test system: NCI-H522 lung
[33] = test system: NCI/ADR-RES ovarian
[34] = test system: OVCAR-3 ovarian
[35] = test system: OVCAR-4 ovarian
[36] = test system: OVCAR-5 ovarian
[37] = test system: OVCAR-8 ovarian
[38] = test system: PC-3 prostate
[39] = test system: RPMI-8226 leukemia
[40] = test system: RXF 393 renal
[41] = test system: SF-268 CNS
[42] = test system: SF-295 CNS
[43] = test system: SF-539 CNS
[44] = test system: SK-MEL-2 melanoma
[45] = test system: SK-MEL-5 melanoma
[46] = test system: SK-OV-3 ovarian
[47] = test system: SN12C renal
[48] = test system: SNB-19 CNS
[49] = test system: SNB-75 CNS
[50] = test system: SR leukemia
[51] = test system: SW-620 colon
[52] = test system: T-47D breast
[53] = test system: TK-10 renal
[54] = test system: U251 CNS
[55] = test system: UO-31 renal
[56] = test system: SK-MEL-28 melanoma
[57] = test system: UACC-257 melanoma
[58] = test system: UACC-62 melanoma

## CO[C@H](C(=O)[C@@H](O)[C@@H](C)O)[C@@H]1Cc2cc3cc(O[C@H]4C[C@@H](O[C@H]5C[C@@H](O)[C@H](O)C(C)O5)[C@H](O)C(C)(O)O4)cc(O)c3c(O)c2C(=O)[C@H]1O[C@H]1C[C@@H](O[C@H]2C[C@@H](O[C@H]3C[C@@H](OC)[C@H](O)C(C)O3)[C@@H](O)C(C)O2)[C@H](O)C(C)O1 (some centres undefined)
[1]
  GI50: 1.51 µM
  TGI: > 16.8 µM
[2]
  GI50: 0.369 µM
  TGI: 1.29 µM
[3]
  GI50: 0.828 µM
  TGI: > 16.8 µM
[4]
  GI50: 3.68 µM
  TGI: > 16.8 µM
[5]
  GI50: 2.04 µM
  TGI: > 16.8 µM
[6]
  GI50: > 16.8 µM
  TGI: > 16.8 µM
[7]
  GI50: 5 µM
  TGI: > 16.8 µM
[8]
  GI50: 0.72 µM
  TGI: 4.94 µM
[9]
  GI50: 0.976 µM
  TGI: > 16.8 µM
[10]
  GI50: 1.5 µM
  TGI: > 16.8 µM
[11]
  GI50: 1.92 µM
  TGI: > 16.8 µM
[12]
  GI50: 0.542 µM
  TGI: > 16.8 µM
[13]
  GI50: > 16.8 µM
  TGI: > 16.8 µM
[14]
  GI50: 11.2 µM
  TGI: > 16.8 µM
[15]
  GI50: 0.521 µM
  TGI: > 16.8 µM
[16]
  GI50: 0.528 µM
  TGI: 8.66 µM
[17]
  GI50: 0.708 µM
  TGI: > 16.8 µM
[18]
  GI50: 1.16 µM
  TGI: > 16.8 µM
[19]
  GI50: 0.809 µM
  TGI: > 16.8 µM
[20]
  GI50: 0.951 µM
  TGI: > 16.8 µM
[21]
  GI50: 0.786 µM
  TGI: > 16.8 µM
[22]
  GI50: 0.384 µM
  TGI: > 16.8 µM
[23]
  GI50: 2.56 µM
  TGI: > 16.8 µM
[24]
  GI50: 0.212 µM
  TGI: 14 µM
[25]
  GI50: 0.185 µM
  TGI: > 16.8 µM
[26]
  GI50: 1.89 µM
  TGI: > 16.8 µM
[27]
  GI50: 0.895 µM
  TGI: > 16.8 µM
[28]
  GI50: 1.2 µM
  TGI: > 16.8 µM
[29]
  GI50: 0.796 µM
  TGI: 5.34 µM
[30]
  GI50: 0.831 µM
  TGI: > 16.8 µM
[31]
  GI50: 0.469 µM
  TGI: > 16.8 µM
[32]
  GI50: 0.354 µM
  TGI: 14.8 µM
[33]
  GI50: > 16.8 µM
  TGI: > 16.8 µM
[34]
  GI50: 0.956 µM
  TGI: > 16.8 µM
[35]
  GI50: 1.35 µM
  TGI: > 16.8 µM
[36]
  GI50: 2.95 µM
  TGI: > 16.8 µM
[37]
  GI50: 1.55 µM
  TGI: > 16.8 µM
[38]
  GI50: 1.42 µM
  TGI: > 16.8 µM
[39]
  GI50: 0.833 µM
  TGI: > 16.8 µM
[40]
  GI50: 1.27 µM
  TGI: 7.94 µM
[41]
  GI50: 0.726 µM
  TGI: > 16.8 µM
[42]
  GI50: 0.666 µM
  TGI: > 16.8 µM
[43]
  GI50: 0.658 µM
  TGI: 12.2 µM
[44]
  GI50: 0.704 µM
  TGI: 5.18 µM
[45]
  GI50: 0.509 µM
  TGI: 2.97 µM
[46]
  GI50: 0.671 µM
  TGI: > 16.8 µM
[47]
  GI50: 0.868 µM
  TGI: > 16.8 µM
[48]
  GI50: 0.761 µM
  TGI: > 16.8 µM
[49]
  GI50: 0.063 µM
  TGI: 6.84 µM
[50]
  GI50: 0.25 µM
  TGI: > 16.8 µM
[51]
  GI50: 1.31 µM
  TGI: > 16.8 µM
[52]
  GI50: 0.447 µM
  TGI: > 16.8 µM
[53]
  GI50: 2.8 µM
  TGI: > 16.8 µM
[54]
  GI50: 0.387 µM
  TGI: > 16.8 µM
[55]
  GI50: 4.06 µM
  TGI: > 16.8 µM

## O=C(N/N=C\c1c(O)ccc2ccccc12)C1CC1
[1]
  GI50: 5.16 µM
  TGI: > 100 µM
[2]
  GI50: 16.8 µM
  TGI: 52 µM
[3]
  GI50: 7.13 µM
  TGI: > 100 µM
[4]
  GI50: 2.82 µM
  TGI: > 100 µM
[5]
  GI50: 5.78 µM
  TGI: 88.7 µM
[6]
  GI50: 1.6 µM
  TGI: 8.22 µM
[7]
  GI50: 0.889 µM
  TGI: > 100 µM
[8]
  GI50: 11.2 µM
  TGI: 93.8 µM
[9]
  GI50: 13.4 µM
  TGI: > 100 µM
[10]
  GI50: 2.91 µM
  TGI: > 100 µM
[11]
  GI50: 9.8 µM
  TGI: > 100 µM
[12]
  GI50: 3.04 µM
  TGI: > 100 µM
[13]
  GI50: 1.22 µM
  TGI: > 100 µM
[14]
  GI50: 1.53 µM
  TGI: > 100 µM
[15]
  GI50: 4.34 µM
  TGI: 91.4 µM
[16]
  GI50: 16.7 µM
  TGI: > 100 µM
[17]
  GI50: 17.2 µM
  TGI: > 100 µM
[18]
  GI50: 13 µM
  TGI: > 100 µM
[20]
  GI50: 3.64 µM
  TGI: > 100 µM
[21]
  GI50: 6.12 µM
  TGI: > 100 µM
[22]
  GI50: 1.79 µM
  TGI: > 100 µM
[23]
  GI50: 3.76 µM
  TGI: 56 µM
[24]
  GI50: 7.76 µM
  TGI: 54 µM
[25]
  GI50: 3.41 µM
  TGI: > 100 µM
[26]
  GI50: 7.5 µM
  TGI: > 100 µM
[27]
  GI50: 11.6 µM
  TGI: > 100 µM
[28]
  GI50: 3.17 µM
  TGI: > 100 µM
[29]
  GI50: 13.1 µM
  TGI: 84.2 µM
[30]
  GI50: 5.94 µM
  TGI: > 100 µM
[31]
  GI50: 3 µM
  TGI: > 100 µM
[32]
  GI50: 5.75 µM
  TGI: > 100 µM
[33]
  GI50: 2.76 µM
  TGI: > 100 µM
[34]
  GI50: 2.2 µM
  TGI: 46 µM
[35]
  GI50: 2.6 µM
  TGI: > 100 µM
[36]
  GI50: 19.6 µM
  TGI: > 100 µM
[37]
  GI50: 3.12 µM
  TGI: > 100 µM
[38]
  GI50: 11.7 µM
  TGI: > 100 µM
[39]
  GI50: 7.91 µM
  TGI: > 100 µM
[40]
  GI50: 8.91 µM
  TGI: > 100 µM
[41]
  GI50: 4.1 µM
  TGI: > 100 µM
[42]
  GI50: 2.26 µM
  TGI: 8.23 µM
[43]
  GI50: 4.48 µM
  TGI: > 100 µM
[44]
  GI50: 18.9 µM
  TGI: > 100 µM
[56]
  GI50: 17.8 µM
  TGI: > 100 µM
[45]
  GI50: 3.81 µM
  TGI: > 100 µM
[46]
  GI50: 3.36 µM
  TGI: 67.2 µM
[47]
  GI50: 11.7 µM
  TGI: > 100 µM
[48]
  GI50: 12.9 µM
  TGI: > 100 µM
[49]
  GI50: 6.68 µM
  TGI: 91.1 µM
[50]
  GI50: 2.55 µM
  TGI: > 100 µM
[51]
  GI50: 6.55 µM
  TGI: > 100 µM
[52]
  GI50: 4.9 µM
  TGI: > 100 µM
[53]
  GI50: 30.4 µM
  TGI: > 100 µM
[54]
  GI50: 2.05 µM
  TGI: > 100 µM
[57]
  GI50: 3.74 µM
  TGI: 97.1 µM
[58]
  GI50: 3.25 µM
  TGI: 22.8 µM
[55]
  GI50: 0.863 µM
  TGI: 14.9 µM

From PubChem BioAssay (NCI)
